ChEMBL document CHEMBL1201862, “PubChem BioAssay data set” (2004)
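Following 48 hours of exposure in 96-well plates, responses at five concentrations were used to interpolate endpoints linearly. The concentration for 50% growth inhibition is given as GI50.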 Active and inactive are the calls of the source. Cut-off read from the data, not from the text of the source: active = GI50 up to about 1.1 µM and inactive = higher.

How the values were obtained:
Assay in all cases: DTP human tumour cell line panel, 48 h
Malme-3M = system: Malme-3M
SW-620 = system: SW-620
OVCAR-4 = system: OVCAR-4
UACC-62 = system: UACC-62
HCT-15 = system: HCT-15
SN12C = system: SN12C
UACC-257 = system: UACC-257
LXFL 529 = system: LXFL 529
M14 = system: M14
CCRF-CEM = system: CCRF-CEM
SNB-19 = system: SNB-19
A498 = system: A498
SK-MEL-5 = system: SK-MEL-5
786-0 = system: 786-0
SNB-78 = system: SNB-78
NCI-H226 = system: NCI-H226
SR = system: SR

Row | SMILES | GI50 (Malme-3M) | GI50 (SW-620) | GI50 (OVCAR-4) | GI50 (UACC-62) | GI50 (HCT-15) | GI50 (SN12C) | GI50 (UACC-257) | GI50 (LXFL 529) | GI50 (M14) | GI50 (CCRF-CEM) | GI50 (SNB-19) | GI50 (A498) | GI50 (SK-MEL-5) | GI50 (786-0) | GI50 (SNB-78) | GI50 (NCI-H226) | GI50 (SR)
1 | CC(=O)n1c(=O)c2cc3c(=O)n(-c4cccc(C#N)c4)c(=O)c3cc2c1=O | > 100 µM (inactive) | > 100 µM (inactive) | > 100 µM (inactive) | > 100 µM (inactive) | > 100 µM | > 100 µM (inactive) | > 100 µM (inactive) | > 100 µM (inactive) | > 100 µM (inactive) | > 100 µM (inactive) | 67 µM (inactive) | > 100 µM (inactive) | > 100 µM (inactive) | 90.4 µM (inactive) | 60.3 µM (inactive) | > 100 µM (inactive) | 
2 | Cc1cc(C)n2c(-c3ccccc3)c(C)cc2n1 | 49.4 µM (inactive) | 34 µM (inactive) | 73.3 µM (inactive) | 28.2 µM (inactive) | 16.7 µM | 50.5 µM (inactive) | > 100 µM (inactive) |  | 43.5 µM (inactive) | 1.09 µM (active) | 52.2 µM (inactive) | 35.2 µM (inactive) | 26.9 µM (inactive) | 78 µM (inactive) | 94.6 µM (inactive) | 36.2 µM (inactive) | 
3 | O=C(NN1C(=O)C(Cl)C1c1ccccc1Cl)c1ccccc1O (stereo unspecified) | > 100 µM (inactive) |  | > 100 µM (inactive) | > 100 µM (inactive) | > 100 µM | > 100 µM (inactive) | > 100 µM (inactive) | > 100 µM (inactive) | > 100 µM (inactive) | > 100 µM (inactive) | > 100 µM (inactive) |  | > 100 µM (inactive) | > 100 µM (inactive) | > 100 µM (inactive) | > 100 µM (inactive) | 
4 | Cn1c(O)c(C(=O)Nc2cccs2)c(=O)[nH]c1=S | 16.1 µM (inactive) | 26.2 µM (inactive) | 22.5 µM (inactive) | 14.1 µM (inactive) | 12.7 µM | 17.7 µM (inactive) | 15.4 µM (inactive) | 12.1 µM (inactive) | 23.1 µM (inactive) | 39 µM (inactive) | 28.9 µM (inactive) | 19.9 µM (inactive) | 13.6 µM (inactive) | 20.2 µM (inactive) | 18.9 µM (inactive) | 14.5 µM (inactive) | 
5 | CCOP(=O)(OCC)C1CCCOC1=O (stereo unspecified) | > 100 µM (inactive) | > 100 µM (inactive) | > 100 µM (inactive) | > 100 µM (inactive) | > 100 µM | > 100 µM (inactive) | > 100 µM (inactive) | > 100 µM (inactive) | > 100 µM (inactive) | > 100 µM (inactive) | > 100 µM (inactive) | > 100 µM (inactive) | > 100 µM (inactive) | > 100 µM (inactive) | > 100 µM (inactive) |  | 
6 | COc1ccc(-c2cc(=O)c3c(O)cccc3o2)c(OC)c1OC | > 100 µM (inactive) | 22.4 µM (inactive) | 74.5 µM (inactive) | > 100 µM (inactive) | 10.1 µM | 76.9 µM (inactive) | > 100 µM (inactive) | 99.5 µM (inactive) | > 100 µM (inactive) | > 100 µM (inactive) |  | 33 µM (inactive) | 24.7 µM (inactive) | > 100 µM (inactive) | 51.4 µM (inactive) | > 100 µM (inactive) | 
7 | Cc1nn(-c2ccccc2)c(-c2ccccc2[N+](=O)[O-])c1CC#N | 29.4 µM (inactive) | > 10 µM (inactive) | > 100 µM (inactive) | 78.5 µM (inactive) | > 100 µM | > 100 µM (inactive) | > 100 µM (inactive) | > 100 µM (inactive) | > 100 µM (inactive) | > 100 µM (inactive) | > 100 µM (inactive) |  | 7.87 µM (inactive) | > 100 µM (inactive) | > 100 µM (inactive) |  | 
8 | CSc1nc2nccnc2c(=O)[nH]1 | > 100 µM (inactive) | > 100 µM (inactive) | > 100 µM (inactive) | > 100 µM (inactive) | > 100 µM | > 100 µM (inactive) | > 100 µM (inactive) | > 100 µM (inactive) | > 100 µM (inactive) | > 100 µM (inactive) | > 100 µM (inactive) | > 100 µM (inactive) | > 100 µM (inactive) | > 100 µM (inactive) |  | > 100 µM (inactive) | > 100 µM (inactive)
9 | CC1CCC2(NC1)OC1CC3[C@@H]4CC=C5C=CCC[C@]5(C)C4CC[C@]3(C)C1C2C (stereo partly specified) | 18.5 µM (inactive) | 19.7 µM (inactive) | 18.2 µM (inactive) | 21 µM (inactive) | 21 µM | 27.7 µM (inactive) | 22.5 µM (inactive) |  | 22.4 µM (inactive) | 21 µM (inactive) | 38.5 µM (inactive) | 69.7 µM (inactive) | 15.3 µM (inactive) | 16.6 µM (inactive) | 39.4 µM (inactive) | 35.2 µM (inactive) | 
